Patent publication US6358885B1, “Substituted phenylheterocyclic herbicides” (Mississippi State University, priority 1992, dated 2002)

Experiments:
barnyardgrass [1] = experiment: Test B preemergence/postemergence greenhouse plant response rating 0 to 10; assay type: in vivo, Echinochloa crus-galli; settings: 0 to 10 scale
Outline: (§1)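 Test chemicals, dissolved in a non-phytotoxic solvent, were applied to soil at planting and, at the same time, over foliage of seedlings at the one to four leaf stage.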

cocklebur = experiment: as above; assay type: in vivo, Xanthium pensylvanicum; settings: 0 to 10 scale
Outline: as §1

crabgrass = experiment: as above; assay type: in vivo, Digitaria spp.; settings: 0 to 10 scale
Outline: as §1

giant foxtail [2] = experiment: as above; assay type: in vivo, Setaria faberii; settings: 0 to 10 scale
Outline: as §1

lambsquarters = experiment: as above; assay type: in vivo, Chenopodium album; settings: 0 to 10 scale
Outline: as §1

wild buckwheat = experiment: as above; assay type: in vivo, Polygonum convolvulus; settings: 0 to 10 scale
Outline: as §1

wild oat [3] = experiment: as above; assay type: in vivo, Avena fatua; settings: 0 to 10 scale
Outline: as §1

purple nutsedge = experiment: as above; assay type: in vivo, Cyperus rotundus; settings: 0 to 10 scale
Outline: as §1

chickweed = experiment: Test C preemergence/postemergence greenhouse plant response rating 0 to 100; assay type: in vivo, Stellaria media; settings: for Plant response rating, Chickweed: 62 g/ha, 0 to 100 scale
Outline: (§2)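 Compounds in non-phytotoxic solvent went onto sandy loam before emergence (seeded one day earlier) or onto plants at the one-to-four leaf stage. Duck salad was treated via flood water (~2.5 cm, maintained) over silt loam.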

cotton = experiment: as above; assay type: in vivo, Gossypium hirsutum; settings: for Plant response rating, Cotton: 62 g/ha, 0 to 100 scale
Outline: as §2

downy brome = experiment: as above; assay type: in vivo, Bromus tectorum; settings: for Plant response rating Downy Brome: 62 g/ha, 0 to 100 scale
Outline: as §2

giant foxtail [4] = experiment: as above; assay type: in vivo, Setaria faberii; settings: for Plant response rating, Giant foxtail: 62 g/ha, 0 to 100 scale
Outline: as §2

rape = experiment: as above; assay type: in vivo, Brassica napus; settings: for Plant response rating, Rape: 62 g/ha, 0 to 100 scale
Outline: as §2

soybean = experiment: as above; assay type: in vivo, Glycine max
Outline: as §2

wild oat [5] = experiment: as above; assay type: in vivo, Avena fatua
Outline: as §2

rice = experiment: Test C flood test plant response rating 0 to 100; assay type: in vivo, Oryza sativa
Outline: (§3)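 Compounds in non-phytotoxic solvent applied preemergence to sandy loam one day after planting, postemergence at the 1–4 leaf stage, or to ~2.5 cm floodwater over silt loam.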

umbrella sedge = experiment: Test C flood test plant response rating 0 to 100; assay type: in vivo, Cyperus difformis
Outline: as §3

barnyardgrass [6] = experiment: Test C flood test plant response rating 0 to 100; assay type: in vivo, Echinochloa crus-galli
Outline: as §3

[7] = POSTEMERGENCE, 62 g/ha, 0 to 100 scale
[8] = POSTEMERGENCE section, flood test, Rate 1 g/ha
[9] = POSTEMERGENCE section, flood test, Rate 4 g/ha
[10] = Rate 16 g/ha, under POSTEMERGENCE head (flood test species)
[11] = flood test species listed under POSTEMERGENCE, 62 g/ha, 0 to 100 scale

`CCN1C(=O)COc2cc(F)c(-c3nn4c(c3Cl)CCCC4)cc21` [Compound 54] was tested, and the “Plant response rating, Barnyardgrass” value (barnyardgrass [1]; POSTEMERGENCE, Rate 10 g/ha) was 3, the “Plant response rating, Barnyardgrass” value (barnyardgrass [1]; POSTEMERGENCE, Rate 50 g/ha) was 5 and the “Plant response rating, Barnyardgrass” value (barnyardgrass [1]; PREEMERGENCE, Rate 10 g/ha) was 0. For the same compound, the “Plant response rating, Barnyardgrass” value (barnyardgrass [1]; PREEMERGENCE, Rate 50 g/ha) was 3, the “Plant response rating, Cocklebur” value (cocklebur; POSTEMERGENCE, Rate 10 g/ha) was 9 and the “Plant response rating, Cocklebur” value (cocklebur; POSTEMERGENCE, Rate 50 g/ha) was 10. The “Plant response rating, Cocklebur” value (cocklebur; PREEMERGENCE, Rate 10 g/ha) was 0, the “Plant response rating, Cocklebur” value (cocklebur; PREEMERGENCE, Rate 50 g/ha) was 0 and the “Plant response rating, Crabgrass” value (crabgrass; POSTEMERGENCE, Rate 10 g/ha) was 2. The “Plant response rating, Crabgrass” value (crabgrass; POSTEMERGENCE, Rate 50 g/ha) was 3, the “Plant response rating, Crabgrass” value (crabgrass; PREEMERGENCE, Rate 10 g/ha) was 0 and the “Plant response rating, Crabgrass” value (crabgrass; PREEMERGENCE, Rate 50 g/ha) was 0. The “Plant response rating, Giant foxtail” value (giant foxtail [2]; POSTEMERGENCE, Rate 10 g/ha) was 4, the “Plant response rating, Giant foxtail” value (giant foxtail [2]; POSTEMERGENCE, Rate 50 g/ha) was 4 and the “Plant response rating, Giant foxtail” value (giant foxtail [2]; PREEMERGENCE, Rate 10 g/ha) was 0. For the same compound, the “Plant response rating, Giant foxtail” value (giant foxtail [2]; PREEMERGENCE, Rate 50 g/ha) was 8, the “Plant response rating, Lambsquarter” value (lambsquarters; POSTEMERGENCE, Rate 10 g/ha) was 10 and the “Plant response rating, Lambsquarter” value (lambsquarters; POSTEMERGENCE, Rate 50 g/ha) was 10. The “Plant response rating, Lambsquarter” value (lambsquarters; PREEMERGENCE, Rate 50 g/ha) was 10, the “Plant response rating, Wild buckwheat” value (wild buckwheat; POSTEMERGENCE, Rate 10 g/ha) was 10 and the “Plant response rating, Wild buckwheat” value (wild buckwheat; POSTEMERGENCE, Rate 50 g/ha) was 10. The “Plant response rating, Wild buckwheat” value (wild buckwheat; PREEMERGENCE, Rate 50 g/ha) was 10, the “Plant response rating, Wild oat” value (wild oat [3]; POSTEMERGENCE, Rate 10 g/ha) was 4 and the “Plant response rating, Wild oat” value (wild oat [3]; POSTEMERGENCE, Rate 50 g/ha) was 7. The “Plant response rating, Wild oat” value (wild oat [3]; PREEMERGENCE, Rate 50 g/ha) was 2, the “Plant response rating, Nutsedge” value (purple nutsedge; POSTEMERGENCE, Rate 10 g/ha) was 2 and the “Plant response rating, Nutsedge” value (purple nutsedge; POSTEMERGENCE, Rate 50 g/ha) was 2. The “Plant response rating, Nutsedge” value (purple nutsedge; PREEMERGENCE, Rate 50 g/ha) was 0, the “Plant response rating, Chickweed” value (chickweed; POSTEMERGENCE) was 100 and the “Plant response rating (0 to 100), Chickweed” value (chickweed; POSTEMERGENCE, Rate 1 g/ha) was 60. For the same compound, the “Plant response rating (0 to 100), Chickweed” value (chickweed; POSTEMERGENCE, Rate 4 g/ha) was 75, the “Plant response rating, Chickweed” value (chickweed; PREEMERGENCE) was 100 and the “Plant response rating (0 to 100), Chickweed” value (chickweed; PREEMERGENCE, Rate 1 g/ha) was 0. For the same compound, the “Plant response rating (0 to 100), Chickweed” value (chickweed; PREEMERGENCE, Rate 4 g/ha) was 0, the “Plant response rating (0 to 100), Chickweed” value (chickweed; Rate 16 g/ha, POSTEMERGENCE) was 100 and the “Plant response rating (0 to 100), Chickweed” value (chickweed; Rate 16 g/ha, PREEMERGENCE) was 20. For the same compound, the “Plant response rating, Cotton” value (cotton; POSTEMERGENCE) was 100, the “Plant response rating (0 to 100), Cotton” value (cotton; POSTEMERGENCE, Rate 1 g/ha) was 70 and the “Plant response rating (0 to 100), Cotton” value (cotton; POSTEMERGENCE, Rate 4 g/ha) was 95. For the same compound, the “Plant response rating, Cotton” value (cotton; PREEMERGENCE) was 40, the “Plant response rating (0 to 100), Cotton” value (cotton; PREEMERGENCE, Rate 1 g/ha) was 0 and the “Plant response rating (0 to 100), Cotton” value (cotton; PREEMERGENCE, Rate 4 g/ha) was 0. The “Plant response rating (0 to 100), Cotton” value (cotton; Rate 16 g/ha, POSTEMERGENCE) was 100, the “Plant response rating (0 to 100), Cotton” value (cotton; Rate 16 g/ha, PREEMERGENCE) was 0 and the “Plant response rating Downy Brome” value (downy brome; POSTEMERGENCE) was 60. For the same compound, the “Plant response rating (0 to 100), Downy Brome” value (downy brome; POSTEMERGENCE, Rate 1 g/ha) was 10, the “Plant response rating (0 to 100), Downy Brome” value (downy brome; POSTEMERGENCE, Rate 4 g/ha) was 30 and the “Plant response rating Downy Brome” value (downy brome; PREEMERGENCE) was 30. For the same compound, the “Plant response rating (0 to 100), Downy Brome” value (downy brome; PREEMERGENCE, Rate 1 g/ha) was 0, the “Plant response rating (0 to 100), Downy Brome” value (downy brome; PREEMERGENCE, Rate 4 g/ha) was 0 and the “Plant response rating (0 to 100), Downy Brome” value (downy brome; Rate 16 g/ha, POSTEMERGENCE) was 50. The “Plant response rating (0 to 100), Downy Brome” value (downy brome; Rate 16 g/ha, PREEMERGENCE) was 20, the “Plant response rating, Giant foxtail” value (giant foxtail [4]; POSTEMERGENCE) was 70 and the “Plant response rating (0 to 100), Giant foxtail” value (giant foxtail [4]; POSTEMERGENCE, Rate 1 g/ha) was 10. The “Plant response rating (0 to 100), Giant foxtail” value (giant foxtail [4]; POSTEMERGENCE, Rate 4 g/ha) was 20, the “Plant response rating, Giant foxtail” value (giant foxtail [4]; PREEMERGENCE) was 60 and the “Plant response rating (0 to 100), Giant foxtail” value (giant foxtail [4]; PREEMERGENCE, Rate 1 g/ha) was 0. For the same compound, the “Plant response rating (0 to 100), Giant foxtail” value (giant foxtail [4]; PREEMERGENCE, Rate 4 g/ha) was 0, the “Plant response rating (0 to 100), Giant foxtail” value (giant foxtail [4]; Rate 16 g/ha, POSTEMERGENCE) was 40 and the “Plant response rating (0 to 100), Giant foxtail” value (giant foxtail [4]; Rate 16 g/ha, PREEMERGENCE) was 0. The “Plant response rating, Rape” value (rape; POSTEMERGENCE) was 100, the “Plant response rating (0 to 100), Rape” value (rape; POSTEMERGENCE, Rate 1 g/ha) was 50 and the “Plant response rating (0 to 100), Rape” value (rape; POSTEMERGENCE, Rate 4 g/ha) was 50. For the same compound, the “Plant response rating, Rape” value (rape; PREEMERGENCE) was 10, the “Plant response rating (0 to 100), Rape” value (rape; PREEMERGENCE, Rate 1 g/ha) was 0 and the “Plant response rating (0 to 100), Rape” value (rape; PREEMERGENCE, Rate 4 g/ha) was 0. For the same compound, the “Plant response rating (0 to 100), Rape” value (rape; Rate 16 g/ha, POSTEMERGENCE) was 100, the “Plant response rating (0 to 100), Rape” value (rape; Rate 16 g/ha, PREEMERGENCE) was 0 and the “Plant response rating, Soybean” value (soybean; [7]) was 95. The “Plant response rating (0 to 100), Soybean” value (soybean; POSTEMERGENCE, Rate 1 g/ha) was 50, the “Plant response rating (0 to 100), Soybean” value (soybean; POSTEMERGENCE, Rate 4 g/ha) was 65 and the “Plant response rating (0 to 100), Soybean” value (soybean; PREEMERGENCE, Rate 1 g/ha) was 0. For the same compound, the “Plant response rating (0 to 100), Soybean” value (soybean; PREEMERGENCE, Rate 4 g/ha) was 0, the “Plant response rating (0 to 100), Soybean” value (soybean; Rate 16 g/ha, POSTEMERGENCE) was 85 and the “Plant response rating (0 to 100), Soybean” value (soybean; Rate 16 g/ha, PREEMERGENCE) was 0. The “Plant response rating, Wild oat” value (wild oat [5]; [7]) was 60, the “Plant response rating (0 to 100), Wild oat” value (wild oat [5]; POSTEMERGENCE, Rate 1 g/ha) was 20 and the “Plant response rating (0 to 100), Wild oat” value (wild oat [5]; POSTEMERGENCE, Rate 4 g/ha) was 30. The “Plant response rating (0 to 100), Wild oat” value (wild oat [5]; PREEMERGENCE, Rate 1 g/ha) was 0, the “Plant response rating (0 to 100), Wild oat” value (wild oat [5]; PREEMERGENCE, Rate 4 g/ha) was 0 and the “Plant response rating (0 to 100), Wild oat” value (wild oat [5]; Rate 16 g/ha, POSTEMERGENCE) was 40. The “Plant response rating (0 to 100), Wild oat” value (wild oat [5]; Rate 16 g/ha, PREEMERGENCE) was 10, the “Plant response rating (0 to 100), Rice Japonica” value (rice; [8]) was 0 and the “Plant response rating (0 to 100), Rice Japonica” value (rice; [9]) was 0. The “Plant response rating (0 to 100), Rice Japonica” value (rice; [10]) was 55, the “Plant response rating Rice Japonica” value (rice; [11]) was 85 and the “Plant response rating (0 to 100), Umbrella sedge” value (umbrella sedge; [8]) was 0. For the same compound, the “Plant response rating (0 to 100), Umbrella sedge” value (umbrella sedge; [9]) was 0, the “Plant response rating (0 to 100), Umbrella sedge” value (umbrella sedge; [10]) was 10 and the “Plant response rating Umbrella sedge” value (umbrella sedge; [11]) was 70. For the same compound, the “Plant response rating (0 to 100), Barnyardgrass 2” value (barnyardgrass [6]; [8]) was 0, the “Plant response rating (0 to 100), Barnyardgrass 2” value (barnyardgrass [6]; [9]) was 10 and the “Plant response rating (0 to 100), Barnyardgrass 2” value (barnyardgrass [6]; [10]) was 95. The “Plant response rating Barnyardgrass 2” value (barnyardgrass [6]; [11]) was 100.
